Source: patent US10246442B2, “4-Aminoquinazolin compounds as prolyl hydroxylase inhibitors” (JANSSEN PHARMACEUTICA NV, priority 2011, dated 2019)

Experiments:
PHD2181-417 = PHD2181-417 (Homo sapiens (Human), UniProt Q9GZT9); experiment: PHD enzymatic assay ([14C]-succinic acid production); type: biochemical; settings: purified PHD2181-417, HIF-1α peptide substrate, 30 min pre-incubation, average of results
How it was run: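 Recombinant human PHD2 (aa 181-417, E. coli-expressed, tags cleaved) with peptide substrate (10 μM) and [5-14C]-2-oxoglutarate in Tris pH 7.5 with catalase, DTT and ascorbate, 10 min reaction after 30 min compound pre-incubation; compounds at 100 μM final, 1% DMSO. [14C]-succinate separated by DNP precipitation and beta-counted; IC50 from three-parameter logistic fit.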

HIF1-α, Hela cells = experiment: Cellular assay for HIF1-α in Hela cells; type: cell-based; settings: Homo sapiens, 100 μM compound, 6 hours, percent of HIF stimulation relative to assay control compound 7-[(4-Chloro-phenyl)-(5-methyl-isoxazol-3-ylamino)-methyl]-quinolin-8-ol
Method: Cellular Assay for HIF1-α
Hela cells (ATCC, Manassas, Va.) were plated in 96-well plates at 20,000 cells per well in 100 μl of DMEM containing 10% fetal bovine serum, 1% non-essential amino acids, 50 IU/mL of penicillin and 50 μg/mL of streptomycin (all cell culture reagents from Invitrogen, Carlsbad, Calif.). 24 hours after plating, changed media to 100 ul of DMEM without 10% fetal bovine serum, 1.1 μl of the stock solution for each compound was added and incubated for 6 hours. All compounds were tested with a final compound concentration of 100 μM. The supernatant was removed and the cells were lysed in 55 μl of MSD lysis buffer containing protease inhibitors. 50 μl of the cell lysate was then transferred to a blocked MSD human HIF-1α detection plate (Meso-Scale Discovery, Gaithersburg, Md., as per manufacturers protocol), and incubated at room temperature on an orbital shaker for 2 hour. After 3 washes in PBS, 25 μl of 20 nM anti-HIF1α a detection antibody was added and incubated for 1 hour at room temperature on an orbital shaker. After 3 washes in PBS, 150 μl of 1× read buffer was added and the plate was then read on a MSD SECTOR instrument. Data was analyzed by determining the percent of HIF stimulation in the presence of 100 μM compound relative to an assay control compound, 7-[(4-Chloro-phenyl)-(5-methyl-isoxazol-3-ylamino)-methyl]-quinolin-8-ol.

[1] = test system: Erythropoietin secretion, Hep-3B cells; experiment: Cellular assay: EPO secretion in Hep-3B cells; type: cell-based; settings: Homo sapiens, Hep3B, 100 μM compound, 24 hours, percent of EPO secretion relative to assay control compound 7-[(4-Chloro-phenyl)-(5-methyl-isoxazol-3-ylamino)-methyl]-quinolin-8-ol, read-out: Cellular % EPO Stimulation
How it was run: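 Compounds at 100 μM final were added to Hep-3B cells 24 h after plating and left for 24 h. Secreted EPO in supernatant measured by MSD electrochemiluminescence immunoassay. Reported as percent EPO secretion relative to an 8-hydroxyquinoline reference control compound.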

PHD2181-417, sequence (Q9GZT9 181-417): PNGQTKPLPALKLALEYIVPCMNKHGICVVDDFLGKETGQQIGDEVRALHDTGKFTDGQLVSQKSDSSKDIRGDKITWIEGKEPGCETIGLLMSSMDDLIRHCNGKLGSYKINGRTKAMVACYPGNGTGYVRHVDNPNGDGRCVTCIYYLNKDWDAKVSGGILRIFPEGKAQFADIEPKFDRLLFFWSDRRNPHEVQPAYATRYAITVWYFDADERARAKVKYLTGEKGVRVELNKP

Compound | Enzyme pIC50 (PHD2181-417) | IC50 (PHD2181-417; read-out: Enzyme pIC50 (converted)) [nM] | activation at 100 µM (HIF1-α, Hela cells) [%] | activation at 100 µM [1] [%]
O=C(O)c1cnn(-c2nc(NCC3CCCCC3)c3cc(C4CCCCC4)ccc3n2)c1 [Example 39, 1-(6-Cyclohexyl-4-((cyclohexylmethyl)amino)quinazolin-2-yl)-1H-pyrazole-4-carboxylic acid] | 6.9 |  | 6.1 | 
O=C(O)c1cnn(-c2nc(NC3CC3)c3ccc(Oc4ccccc4)cc3n2)c1 [Example 86, 1-(4-(Cyclopropylamino)-7-phenoxyquinazolin-2-yl)-1H-pyrazole-4-carboxylic acid] | 6.3 |  | 13 | 
Cc1cccc(C)c1Oc1cc2c(N3CCSCC3)nc(-n3cc(C(=O)O)cn3)nc2cc1F [Example 18, 1-(6-(2,6-Dimethylphenoxy)-7-fluoro-4-thiomorpholinoquinazolin-2-yl)-1H-pyrazole-4-carboxylic acid] | 7.0 |  | 15 | 
CC(=O)NC1CCN(c2nc(-n3cc(C(=O)O)cn3)nc3cc(F)c(Oc4c(C)cccc4C)cc23)CC1 [Example 21, 1-(4-(4-Acetamidopiperidin-1-yl)-6-(2,6-dimethylphenoxy)-7-fluoroquinazolin-2-yl)-1H-pyrazole-4-carboxylic acid] | 6.9 |  | 62 | 
O=C(O)c1cnn(-c2nc(N3CCC(F)CC3)c3ccc(Oc4ccccc4)cc3n2)c1 [Example 91, 1-(4-(4-Fluoropiperidin-1-yl)-7-phenoxyquinazolin-2-yl)-1H-pyrazole-4-carboxylic acid] | 6.3 |  | 18 | 
O=C(O)c1cnn(-c2nc(N3CCCCCC3)c3ccc(Oc4ccccc4)cc3n2)c1 [Example 87, 1-(4-(Azepan-1-yl)-7-phenoxyquinazolin-2-yl)-1H-pyrazole-4-carboxylic acid] |  |  | 20 | 
CCCN(CCC)c1nc(-n2cc(C(=O)O)cn2)nc2cc(Oc3ccccc3)ccc12 [Example 93, 1-(4-(Dipropylamino)-7-phenoxyquinazolin-2-yl)-1H-pyrazole-4-carboxylic acid] |  |  | 43 | 
CN1CCCN(c2nc(-n3cc(C(=O)O)cn3)nc3ccc(Oc4ccc(Cl)cc4)cc23)CC1 [Example 71, 1-(6-(4-Chlorophenoxy)-4-(4-methyl-1,4-diazepan-1-yl)quinazolin-2-yl)-1H-pyrazole-4-carboxylic acid] | 6.7 |  |  | 17
O=C(O)c1cnn(-c2nc(N3CCCC3)c3cc(Oc4ccc(Cl)cc4)ccc3n2)c1 [Example 61, 1-(6-(4-Chlorophenoxy)-4-(pyrrolidin-1-yl)quinazolin-2-yl)-1H-pyrazole-4-carboxylic acid] | 7.3 |  |  | 96
Cc1cccc(C)c1Oc1cc2c(N3CCOCC3)nc(-n3cc(C(=O)O)cn3)nc2cc1F [Example 20, 1-(6-(2,6-Dimethylphenoxy)-7-fluoro-4-morpholinoquinazolin-2-yl)-1H-pyrazole-4-carboxylic acid] | 7.0 |  |  | 54
O=C(O)c1cnn(-c2nc(NC3CC3)c3cc(C4CCCCC4)ccc3n2)c1 [Example 32, 1-(6-Cyclohexyl-4-(cyclopropylamino)quinazolin-2-yl)-1H-pyrazole-4-carboxylic acid] | 6.7 |  |  | 49
O=C(O)c1cnn(-c2nc(Nc3ccccc3)c3cc(C4CCCCC4)ccc3n2)c1 [Example 28, 1-(6-Cyclohexyl-4-(phenylamino)quinazolin-2-yl)-1H-pyrazole-4-carboxylic acid] | 7.3 |  |  | 31
O=C(O)c1cnn(-c2nc(N3CCSCC3)c3cc(C4CCCCC4)ccc3n2)c1 [Example 34, 1-(6-Cyclohexyl-4-thiomorpholinoquinazolin-2-yl)-1H-pyrazole-4-carboxylic acid] | 6.9 |  |  | 20
O=C(O)c1cnn(-c2nc(Nc3ccccc3)c3cc(Oc4ccc(Cl)cc4)ccc3n2)c1 [Example 69, 1-(6-(4-Chlorophenoxy)-4-(phenylamino)quinazolin-2-yl)-1H-pyrazole-4-carboxylic acid] | 7.7 |  |  | 23

Further lines, with some results ahead:

Enzyme pIC50 (PHD2181-417) | IC50 (PHD2181-417; read-out: Enzyme pIC50 (converted)) [nM] | Compound | activation at 100 µM (HIF1-α, Hela cells) [%] | activation at 100 µM [1] [%]
6.8 |  | CC(C)C1CCN(c2nc(-n3cc(C(=O)O)cn3)nc3cc(Oc4ccccc4)ccc23)CC1 [Example 85, 1-(4-(4-isopropylpiperidin-1-yl)-7-phenoxyquinazolin-2-yl)-1H-pyrazole-4-carboxylic acid] | 1.7 | 
6.6 |  | CS(=O)(=O)Nc1nc(-n2cc(C(=O)O)cn2)nc2ccc(C3CCCCC3)cc12 [Example 40, 1-(6-Cyclohexyl-4-(methylsulfonamido)quinazolin-2-yl)-1H-pyrazole-4-carboxylic acid] | 6.7 | 
7.3 |  | CCN(CC)c1nc(-n2cc(C(=O)O)cn2)nc2ccc(Oc3ccccc3)cc12 [Example 74, 1-(4-(Diethylamino)-6-phenoxyquinazolin-2-yl)-1H-pyrazole-4-carboxylic acid] | 81 | 
7.3 |  | CCN(C)c1nc(-n2cc(C(=O)O)cn2)nc2ccc(-c3ccccc3)cc12 [Example 42, 1-(4-(Ethyl(methyl)amino)-6-phenylquinazolin-2-yl)-1H-pyrazole-4-carboxylic acid] |  | 56
6.8 |  | CC(C)c1ccc2nc(-n3cc(C(=O)O)cn3)nc(N3CCCC3)c2c1 [Example 187, 1-(6-isopropyl-4-(pyrrolidin-1-yl)quinazolin-2-yl)-1H-pyrazole-4-carboxylic acid] |  | 28
7.4 |  | CCN(C)c1nc(-n2cc(C(=O)O)cn2)nc2cc(Cl)c(C(C)C)cc12 [Example 164, 1-(7-chloro-4-(ethyl(methyl)amino)-6-isopropylquinazolin-2-yl)-1H-pyrazole-4-carboxylic acid] |  | 57
7.4 |  | CN(C)c1nc(-n2cc(C(=O)O)cn2)nc2cc(Cl)c(OC3CCCCC3)cc12 [Example 137, 1-(7-chloro-6-(cyclohexyloxy)-4-(dimethylamino)quinazolin-2-yl)-1H-pyrazole-4-carboxylic acid] |  | 32
 | 79.4 | COCC(C)Nc1nc(-n2cc(C(=O)O)cn2)nc2cc(F)c(Oc3c(C)cccc3C)cc12 (racemic) [Example 9, (rac)-1-[6-(2,6-Dimethyl-phenoxy)-7-fluoro-4-(2-methoxy-1-methyl-ethylamino)-quinazolin-2-yl]-1H-pyrazole-4-carboxylic acid] |  | 86
7.2 |  | O=C(O)c1cnn(-c2nc(NC3CC3)c3cc(OC4CCCCC4)c(F)cc3n2)c1 [Example 105, 1-(7-fluoro-6-(cyclohexyloxy)-4-(cyclopropylamino)quinazolin-2-yl)-1H-pyrazole-4-carboxylic acid] |  | 29
5.9 |  | CCN(CC)CCNc1nc(-n2cc(C(=O)O)cn2)nc2cc(F)c(Oc3c(C)cccc3C)cc12 [Example 10, 1-[4-(2-Diethylamino-ethylamino)-6-(2,6-dimethyl-phenoxy)-7-fluoro-quinazolin-2-yl]-1H-pyrazole-4-carboxylic acid] |  | 13
6.8 |  | CCN(C)c1nc(-n2cc(C(=O)O)cn2)nc2ccc(C(C)C)cc12 [Example 189, 1-(6-isopropyl-4-(ethyl(methyl)amino)quinazolin-2-yl)-1H-pyrazole-4-carboxylic acid] |  | 36
7.2 |  | CCN(C)c1nc(-n2cc(C(=O)O)cn2)nc2cc(Cl)c(OC3CCCCC3)cc12 [Example 140, 1-(7-chloro-6-(cyclohexyloxy)-4-(ethyl(methyl)amino)quinazolin-2-yl)-1H-pyrazole-4-carboxylic acid] |  | 29
7.4 |  | CCN(CC)c1nc(-n2cc(C(=O)O)cn2)nc2ccc(-c3ccccc3)cc12 [Example 46, 1-(4-(Diethylamino)-6-phenylquinazolin-2-yl)-1H-pyrazole-4-carboxylic acid] |  | 26
7.2 |  | CNc1nc(-n2cc(C(=O)O)cn2)nc2cc(F)c(Oc3c(C)cccc3C)cc12 [Example 2, 1-[6-(2,6-Dimethyl-phenoxy)-7-fluoro-4-methylamino-quinazolin-2-yl]-1H-pyrazole-4-carboxylic acid] |  | 10
